In patent publication US10676468B2, “N-(3-heteroarylaryl)-4-arylarylcarboxamides and analogs as hedgehog pathway inhibitors and use thereof” (IMPACT Therapeutics, Inc., priority 2012, dated 2020):
pIC50: −log10 of the molar value.

What was measured:
Assay type in all cases: cell-based, mouse
[1] = system: Hedgehog Signaling Pathway; assay: SAG-induced differentiation of C3H10T1/2 cells into osteoblastic cells, intracellular alkaline phosphatase activity; settings: 1 μM SAG, 5 days, alkaline phosphatase activity (OD405), read-out: IC50 values of compounds that inhibit Hh pathway
Outline: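 Mouse C3H10T1/2 cells were induced with SAG and exposed to compound (10 μM to 1 nM) for 5 days at 37 °C. Cells were lysed in 0.2% Triton, and alkaline phosphatase activity was read as OD405 over 30 min at 37 °C in pH 9.8 substrate buffer. IC50 came from a non-linear fit of background-subtracted OD405 against log concentration.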

[2] = system: Hedgehog Signaling Pathway; assay: SHH-induced differentiation of C3H10T1/2 cells into osteoblastic cells, intracellular alkaline phosphatase activity; settings: 10 nM SHH-N, 5 days, alkaline phosphatase activity (OD405), read-out: IC50 values of compounds that inhibit Hh pathway
Outline: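 Hedgehog pathway inhibition was taken as loss of SHH-driven osteoblastic differentiation. Test compound (10 nM–10 μM) plus SHH-N (10 nM) was applied to C3H10T1/2 cells for 5 days, then lysate phosphatase turnover was measured as the 30-min OD405 change at 37 °C. IC50 was fitted from activity versus log dose.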

[3] = system: Hedgehog Signaling Pathway; assay: Gli-Luc reporter gene cell assay in C3H10T1/2/Gli-Luc cells stimulated with Shh; settings: 30 nM Shh, luciferase activity (RLU), read-out: IC50 values of compounds that inhibit Hh pathway
Text: The Application of Reporter Gene Cell Assay for the Determination of the Inhibitory Activity of N-(3-(1H-benzo[d]imidazol-2-yl)-4-chlorophenyl)-2-methyl-4-((2S,6R)-2,6-dimethylmorpholino) benzamide and Analogs on Hedgehog Signaling Pathway
The binding of Sonic hedgehog (Shh) to its receptor Patched 1 initiates numerous intracellular signal transmission, and leads to the nuclear translocation of Gli and the elevated transcription of Gli target genes. When C3H10T1/2 cells are stably transfected with the Gli-Luc plasmids containing the luciferase gene under the control of Gli response element and stimulated with Shh, the expression of luciferase is elevated. Luciferase activity is indicative of the hedgehog signaling pathway activity. Therefore, the inhibitory activity of compounds on hedgehog signaling pathway can be measured using the luciferase activity when the transfected cells are stimulated with Shh.
The day before experiment, C3H10T1/2/Gli-Luc cells in log phase of growth were seeded into 96 well plate at a density of 20000 cells per well. The cells were maintained in DMEM (Hyclone) supplemented with 10% FBS (Hyclone) and incubated at 37° C. with 5% CO2 overnight. The compounds to be examined were diluted into 7 different concentrations by series of dilutions (⅓ and 1/10), and the eighth point of concentration is the DMSO control. Those solutions were diluted 100-fold in the fresh growth medium. The cells were taken out of the incubator and the medium of cultured cells were removed. Then, each well was added in an orderly manner with 80 μL of fresh growth medium, 20 μL of medium pre-dilution of positive compound and compounds to be tested, as well as 100 μL of growth medium containing 30 nM of Shh. The cells are returned to the incubator, and incubated for 24 hours.
Measurement of luciferase activity: After taking the 96 well plate out of the incubator, the supernatants were discarded and the cells were washed twice with PBS. Thereafter, each well was dispensed with 20 μL of lysis buffer (Promega E1531), and the plate was shaken for 30 min at room temperature. Following transferring 5 μL of cell lysate into 384 well plate (Greiner 781074), adding 25 μL of luciferase reaction buffer (Promega E1501) into each well and mixing the plate, the relative light unit (RLU) was immediately captured by VarioSkan Flash.
The data were analyzed with Prism 5 software (GraphPad). The relative light unit (RLU) was plotted against the log concentration of testing compound, and the obtained plot was fitted with non-linear curve fitting equation to calculate IC50 values. The curve fitting equation is Y (RLU)=Bottom+(Top−Bottom)/(1+10^((X−Log IC50))). X is the logarithm of concentration. Y is the measure of relative light unit (RLU).
The calculated IC50 value is a measurement of the inhibitory activity of compound to Hh pathway.

[4] = Mus musculus, C3H 10T1/2, 120 h

Molecule | pIC50 [1, 4] | pIC50 [2, 4] | pIC50 ([3]; Mus musculus, C3H 10T1/2, 24 h) | pIC50 [1] | pIC50 [2] | pIC50 ([3]; 24 hours)
C[C@@H]1CN(c2ccc(C(=O)Nc3ccc(Cl)c(-c4ncc(C5CCCC5)[nH]4)c3)c(Cl)c2)C[C@H](C)N1C [Example 182, N-(3-(5-cyclopentyl-1H-imidazol-2-yl)-4-chlorophenyl)-2-chloro-4-((3S,5R)-3,4,5-trimethylpiperazin-1-yl)benzamide] | 7.00 | 8.05 | 8.35 | – | – | –
C[C@@H]1CN(c2ccc(C(=O)Nc3ccc(Cl)c(-c4ncc(C(C)(C)C)[nH]4)c3)c(Cl)c2)C[C@H](C)N1C [Example 175, N-(3-(5-tert-butyl-1H-imidazol-2-yl)-4-chlorophenyl)-2-chloro-4-((3S,5R)-3,4,5-trimethylpiperazin-1-yl)benzamide] | 6.75 | 8.21 | 8.12 | – | – | –
Cc1cc(N2C[C@@H](C)N(C)[C@@H](C)C2)ccc1C(=O)Nc1ccc(Cl)c(-c2ncc(-c3nccs3)[nH]2)c1 [Example 154, N-(3-(5-(thiazol-2-yl)-1H-imidazol-2-yl)-4-chlorophenyl)-2-methyl-4-((3S,5R)-3,4,5-trimethylpiperazin-1-yl)benzamide] | 6.75 | 7.66 | 8.17 | – | – | –
CN1CCN(c2ccc(C(=O)Nc3ccc(Cl)c(-c4nc5ccccc5[nH]4)c3)cn2)CC1 [Example 103, N-(3-(1H-benzo[d]imidazol-2-yl)-4-chlorophenyl)-6-(4-methylpiperazin-1-yl)nicotinamide] | 6.35 | 7.40 | 8.03 | – | – | –
Cc1cc(-c2ccc(C(F)(F)F)cc2)ccc1C(=O)Nc1ccc(C)c(-c2nc3ccccc3[nH]2)c1 [Example 46, N-(3-(1H-benzo[d]imidazol-2-yl)-4-methylphenyl)-3-methyl-4′-(trifluoromethyl)biphenyl-4-carboxamide] | 7.05 | 8.29 | 8.26 | – | – | –
C[C@@H]1CN(c2ccc(C(=O)Nc3ccc(Cl)c(-c4ncc(C5CCCCC5)[nH]4)c3)c(Cl)c2)C[C@H](C)N1C [Example 184, N-(3-(5-cyclohexyl-1H-imidazol-2-yl)-4-chlorophenyl)-2-chloro-4-((3S,5R)-3,4,5-trimethylpiperazin-1-yl)benzamide] | 6.74 | 7.55 | 8.00 | – | – | –
Cc1cc(-c2ccc(C(F)(F)F)cc2)ccc1C(=O)Nc1ccc(Cl)c(-c2ncc(-c3ccco3)[nH]2)c1 [Example 79, N-(3-(5-(furan-2-yl)-1H-imidazol-2-yl)-4-chlorophenyl)-3-methyl-4′-(trifluoromethyl)biphenyl-4-carboxamide] | 7.00 | 8.57 | 8.18 | – | – | –
C[C@@H]1CN(c2ccc(C(=O)Nc3ccc(Cl)c(-c4ncc(C5CCC5)[nH]4)c3)c(Cl)c2)C[C@H](C)N1C [Example 180, N-(3-(5-cyclobutyl-1H-imidazol-2-yl)-4-chlorophenyl)-2-chloro-4-((3S,5R)-3,4,5-trimethylpiperazin-1-yl)benzamide] | 7.33 | 8.00 | 8.62 | – | – | –
Cc1cc(-c2ccc(C(F)(F)F)cc2)ccc1C(=O)Nc1cnc(C)c(-c2nc3ccccc3[nH]2)c1 [Example 71, N-(5-(1H-benzo[d]imidazol-2-yl)-6-methylpyridin-3-yl)-3-methyl-4′-(trifluoromethyl)biphenyl-4-carboxamide] | 6.74 | 8.44 | 8.15 | – | – | –
C[C@@H]1CN(c2ccc(C(=O)Nc3ccc(Cl)c(-c4nc5cccnc5[nH]4)c3)c(Cl)c2)C[C@H](C)N1C [Example 195, N-(3-(3H-imidazo[4,5-b]pyridin-2-yl)-4-chlorophenyl)-2-chloro-4-((3S,5R)-3,4,5-trimethylpiperazin-1-yl)benzamide] | 6.59 | 8.09 | 8.05 | – | – | –
Cc1cc(N2C[C@@H](C)N(C)[C@@H](C)C2)ccc1C(=O)Nc1ccc(Cl)c(-c2nc3ccc(Cl)cc3[nH]2)c1 [Example 97, N-(3-(6-chloro-1H-benzo[d]imidazol-2-yl)-4-chlorophenyl)-2-methyl-4-((3S,5R)-3,4,5-trimethylpiperazin-1-yl)benzamide] | 7.49 | 9.23 | 8.77 | – | – | –
Cc1cc(C(=O)Nc2cnc(C)c(-c3nc4ccccc4[nH]3)c2)ccc1N1C[C@@H](C)N(C)[C@@H](C)C1 [Example 89, N-(5-(1H-benzo[d]imidazol-2-yl)-6-methylpyridin-3-yl)-3-methyl-4-((3S,5R)-3,4,5-trimethylpiperazin-1-yl)benzamide] | 6.42 | 7.26 | 7.68 | – | – | –
Cc1cc(N2C[C@@H](C)N(C)[C@@H](C)C2)ccc1C(=O)Nc1ccc(Cl)c(-c2nc3ccc(F)cc3[nH]2)c1 [Example 98, N-(3-(6-fluoro-1H-benzo[d]imidazol-2-yl)-4-chlorophenyl)-2-methyl-4-((3S,5R)-3,4,5-trimethylpiperazin-1-yl)benzamide] | 7.62 | 8.85 | 9.02 | – | – | –
Cc1cc(N2C[C@@H](C)N(C)[C@@H](C)C2)ccc1C(=O)Nc1ccc(Cl)c(-c2ncc(C3CCCC3)[nH]2)c1 [Example 183, N-(3-(5-cyclopentyl-1H-imidazol-2-yl)-4-chlorophenyl)-2-methyl-4-((3S,5R)-3,4,5-trimethylpiperazin-1-yl)benzamide] | 7.05 | 7.66 | 8.18 | – | – | –
Cc1cc(N2C[C@@H](C)O[C@@H](C)C2)ncc1C(=O)Nc1cnc(Cl)c(-c2nc3ccccc3[nH]2)c1 [Example 85, N-(5-(1H-benzo[d]imidazol-2-yl)-6-chloropyridin-3-yl)-4-methyl-6-((2S,6R)-2,6-dimethylmorpholino)nicotinamide] | 7.31 | 8.25 | 8.15 | – | – | –
C[C@@H]1CN(c2ccc(C(=O)Nc3ccc(Cl)c(-c4ncc(-c5nccs5)[nH]4)c3)c(Cl)c2)C[C@H](C)N1C [Example 153, N-(3-(5-(thiazol-2-yl)-1H-imidazol-2-yl)-4-chlorophenyl)-2-chloro-4-((3S,5R)-3,4,5-trimethylpiperazin-1-yl)benzamide] | 6.55 | 7.47 | 8.06 | – | – | –
N-(3-(1H-benzo[d]imidazol-2-yl)-4-chlorophenyl)-2-cyano-4-((3S,5R)-3,4,5-trimethylpiperazin-1-yl)benzamide Dihydrochloride [Example 134] | – | – | – | < 5.00 | < 5.00 | < 5.00
Cc1cc(-c2ccc(C(F)(F)F)cc2)ccc1C(=O)Nc1ccc(Cl)c(-c2ccccn2)c1 [Example 59, N-(3-(pyridin-2-yl)-4-chlorophenyl)-3-methyl-4′-(trifluoromethyl)biphenyl-4-carboxamide] | 6.63 | 8.12 | 8.04 | – | – | –
C[C@H]1CN(c2ccc(C(=O)Nc3ccc(Cl)c(-c4nc5ccccc5[nH]4)c3)c(Cl)c2)CCN1C [Example 126, (S)—N-(3-(1H-benzo[d]imidazol-2-yl)-4-chlorophenyl)-2-chloro-4-(3,4-dimethylpiperazin-1-yl)benzamide] | 7.09 | 7.60 | 8.64 | – | – | –
Cc1cc(N2C[C@@H](C)N(C)[C@@H](C)C2)ccc1C(=O)Nc1ccc(Cl)c(-c2ncc(C3CCCCC3)[nH]2)c1 [Example 185, N-(3-(5-cyclohexyl-1H-imidazol-2-yl)-4-chlorophenyl)-2-methyl-4-((3S,5R)-3,4,5-trimethylpiperazin-1-yl)benzamide] | 6.77 | 8.21 | 7.77 | – | – | –
